{"source": "patent US20100298141A1", "about": "“SUBSTITUTED PYRIDINE N-OXIDE HERBICIDES” (E. I. DU PONT DE NEMOURS AND COMPANY, priority 2007, published 2010)", "key": {"barnyardgrass": {"tested_on": "barnyardgrass", "assay": "Test C flooded paddy test", "format": "in vivo, Echinochloa crus-galli", "conditions": "Flood", "outline": "(§1)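 Ratings were visual and made relative to untreated controls after 13 to 15 greenhouse days.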"}, "wheat [1]": {"tested_on": "wheat", "assay": "Test C pre-/postemergence test", "format": "in vivo, Triticum aestivum", "conditions": "Postemergence; for Plant response rating, Wheat: scale 0 to 100, 0 no effect, 100 complete control", "source_text": "(§2) Seeds of plant species selected from blackgrass (Alopecurus myosuroides), downy brome (Bromus tectorum), green foxtail (Setaria viridis), Italian ryegrass (Lolium multiflorum), wheat (Triticum aestivum), wild oat (Avena fatua), catchweed bedstraw (Galium aparine), Russian thistle (Salsola kali), […] (Cynodon dactylon), Surinam grass (Brachiaria decumbens), cocklebur (Xanthium strumarium), corn (Zea mays), crabgrass (Digitaria sanguinalis), woolly cupgrass (Eriochloa villosa), giant foxtail (Setaria faberii), Goosegrass (Eleusin indica), johnsongrass (Sorghum halepense), kochia (Kochia scoparia), lambsquarters (Chenopodium album), morningglory (Ipomoea coccinea), eastern black nightshade (Solanum ptycanthum), yellow nutsedge (Cyperus esculentus), pigweed (Amaranthus retroflexus), common ragweed (Ambrosia elation), soybean (Glycine max), common (oilseed) sunflower (Helianthus annuus), and velvetleaf (Abutilon theophrasti) were planted and treated preemergence with test chemicals formulated in a non-phytotoxic solvent mixture which included a surfactant. At the same time, plants selected from these crop and weed species and also winter barley (Hordeum vulgare), canarygrass (Phalaris minor), and chickweed (Stellaria media) were treated with postemergence applications of some of the test chemicals formulated in the same manner. Plants ranged in height from 2 to 18 cm (1- to 4-leaf stage) for postemergence treatments. […] At time of treatment, test pots were flooded to 3 cm above the soil surface, treated by application of test compounds directly to the paddy water, and then maintained at that water depth for the duration of the test. […] A dash (-) response means no test result."}, "morningglory [2]": {"tested_on": "morningglory", "assay": "Test C pre-/postemergence test", "format": "in vivo, Ipomoea coccinea", "conditions": "Postemergence; for Plant response rating, Morningglory: scale 0 to 100, 0 no effect, 100 complete control", "source_text": "as §2"}, "giant foxtail": {"tested_on": "giant foxtail", "assay": "Test A pre-/postemergence greenhouse test", "format": "in vivo, Setaria faberi", "conditions": "for Plant response rating, Foxtail, Giant: 0 to 100 scale where 0 is no effect and 100 is complete control; for Foxtail, Giant plant response rating: 0 to 100 scale", "outline": "(§3)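 Two application timings were run side by side in the greenhouse. Before emergence, compound went onto the soil surface of loam–sand pots as a directed spray; after emergence, plants at 2–10 cm and the one- to two-leaf stage were treated. Visual injury versus controls was rated at approximately day ten.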"}, "corn": {"tested_on": "corn", "assay": "Test A pre-/postemergence greenhouse test", "format": "in vivo, Zea mays", "conditions": "for Plant response rating, Corn: 0 to 100 scale where 0 is no effect and 100 is complete control; for Corn plant response rating: 0 to 100 scale", "outline": "as §3"}, "soybean": {"tested_on": "soybean", "assay": "Test C pre-/postemergence test", "format": "in vivo, Glycine max", "conditions": "Postemergence; for Plant response rating, Soybean: scale 0 to 100, 0 no effect, 100 complete control", "source_text": "as §2"}, "Italian ryegrass": {"tested_on": "Italian ryegrass", "assay": "Test C pre-/postemergence test", "format": "in vivo, Lolium multiflorum", "conditions": "Postemergence; for Plant response rating, Ryegrass, Italian: scale 0 to 100, 0 no effect, 100 complete control", "source_text": "as §2"}, "morningglory [3]": {"tested_on": "morningglory", "assay": "Test A pre-/postemergence greenhouse test", "format": "in vivo, Ipomoea spp.", "conditions": "for Plant response rating, Morningglory: 0 to 100 scale where 0 is no effect and 100 is complete control; for Morningglory plant response rating: 0 to 100 scale", "outline": "as §3"}, "crabgrass": {"tested_on": "crabgrass", "assay": "Test A pre-/postemergence greenhouse test", "format": "in vivo, Digitaria sanguinalis", "conditions": "for Plant response rating, Crabgrass, Large: 0 to 100 scale where 0 is no effect and 100 is complete control; for Crabgrass, Large plant response rating: 0 to 100 scale", "outline": "as §3"}, "bermudagrass": {"tested_on": "bermudagrass", "assay": "Test C pre-/postemergence test", "format": "in vivo, Cynodon dactylon", "conditions": "Postemergence; for Plant response rating, Bermudagrass: scale 0 to 100, 0 no effect, 100 complete control", "source_text": "as §2"}, "pigweed": {"tested_on": "pigweed", "assay": "Test C pre-/postemergence test", "format": "in vivo, Amaranthus retroflexus", "conditions": "Postemergence; for Plant response rating, Pigweed: scale 0 to 100, 0 no effect, 100 complete control", "source_text": "as §2"}, "Goosegrass": {"tested_on": "Goosegrass", "assay": "Test C pre-/postemergence test", "format": "in vivo, Eleusin indica", "conditions": "Postemergence; for Plant response rating, Goosegrass: scale 0 to 100, 0 no effect, 100 complete control", "source_text": "as §2"}, "yellow nutsedge": {"tested_on": "yellow nutsedge", "assay": "Test C pre-/postemergence test", "format": "in vivo, Cyperus esculentus", "conditions": "Postemergence; for Plant response rating, Nutsedge, Yellow: scale 0 to 100, 0 no effect, 100 complete control", "source_text": "as §2"}, "wheat [4]": {"tested_on": "wheat", "assay": "Test A pre-/postemergence greenhouse test", "format": "in vivo, Triticum aestivum", "conditions": "for Plant response rating, Wheat: 0 to 100 scale where 0 is no effect and 100 is complete control; for Wheat plant response rating: 0 to 100 scale", "outline": "as §3"}, "umbrella sedge": {"tested_on": "umbrella sedge", "assay": "Test C flooded paddy test", "format": "in vivo, Cyperus difformis", "conditions": "Flood", "outline": "as §1"}, "[5]": {"conditions": "62 g ai/ha, scale 0 to 100 (0 no effect, 100 complete control)"}, "[6]": {"conditions": "250 g ai/ha, scale 0 to 100, 0 no effect, 100 complete control, 13 to 15 days"}, "[7]": {"conditions": "Postemergence, 500 g ai/ha, 0 is no effect, 100 is complete control"}, "[8]": {"conditions": "Preemergence, 125 g ai/ha, 0 no effect, 100 complete control"}}}
{"smiles": "CCn1nc(C(F)(F)F)c(C(C)S(=O)(=O)c2cccc[n+]2[O-])c1OCC(F)(F)F", "note": "(centres unmarked) [Compound 69]", "values": [{"measurement": "Plant response rating, Barnyardgrass", "setting": "barnyardgrass; [5]", "value": 0}, {"measurement": "Plant response rating, Barnyardgrass", "setting": "barnyardgrass; [6]", "value": 75}, {"measurement": "Plant response rating (0 to 100), Wheat", "setting": "wheat [1]; 31 g ai/ha", "value": 0}, {"measurement": "Plant response rating (0 to 100), Wheat", "setting": "wheat [1]; 62 g ai/ha", "value": 0}, {"measurement": "Plant response rating, Wheat", "setting": "wheat [1]; 125 g ai/ha", "value": 20}, {"measurement": "Plant response rating, Wheat", "setting": "wheat [1]; 250 g ai/ha", "value": 50}, {"measurement": "Plant response rating (0 to 100), Morningglory", "setting": "morningglory [2]; 31 g ai/ha", "value": 0}, {"measurement": "Plant response rating, Morningglory", "setting": "morningglory [2]; 62 g ai/ha", "value": 0}, {"measurement": "Plant response rating, Morningglory", "setting": "morningglory [2]; 125 g ai/ha", "value": 0}, {"measurement": "Plant response rating, Morningglory", "setting": "morningglory [2]; 250 g ai/ha", "value": 0}, {"measurement": "Plant response rating, Foxtail, Giant", "setting": "giant foxtail; Postemergence, 125 g ai/ha", "value": 80}, {"measurement": "Foxtail, Giant plant response rating", "setting": "giant foxtail; [7]", "value": 100}, {"measurement": "Foxtail, Giant plant response rating", "setting": "giant foxtail; [8]", "value": 100}, {"measurement": "Plant response rating, Foxtail, Giant", "setting": "giant foxtail; Preemergence, 500 g ai/ha", "value": 100}, {"measurement": "Plant response rating, Corn", "setting": "corn; Postemergence, 125 g ai/ha", "value": 60}, {"measurement": "Corn plant response rating", "setting": "corn; [7]", "value": 80}, {"measurement": "Corn plant response rating", "setting": "corn; [8]", "value": 0}, {"measurement": "Plant response rating, Corn", "setting": "corn; Preemergence, 500 g ai/ha", "value": 80}, {"measurement": "Plant response rating (0 to 100), Soybean", "setting": "soybean; 31 g ai/ha", "value": 0}, {"measurement": "Plant response rating (0 to 100), Soybean", "setting": "soybean; 62 g ai/ha", "value": 30}, {"measurement": "Plant response rating, Soybean", "setting": "soybean; 125 g ai/ha", "value": 30}, {"measurement": "Plant response rating, Soybean", "setting": "soybean; 250 g ai/ha", "value": 35}, {"measurement": "Plant response rating (0 to 100), Ryegrass, Italian", "setting": "Italian ryegrass; 31 g ai/ha", "value": 0}, {"measurement": "Plant response rating (0 to 100), Ryegrass, Italian", "setting": "Italian ryegrass; 62 g ai/ha", "value": 40}, {"measurement": "Plant response rating, Ryegrass, Italian", "setting": "Italian ryegrass; 125 g ai/ha", "value": 50}, {"measurement": "Plant response rating, Ryegrass, Italian", "setting": "Italian ryegrass; 250 g ai/ha", "value": 95}, {"measurement": "Plant response rating, Morningglory", "setting": "morningglory [3]; Postemergence, 125 g ai/ha", "value": 40}, {"measurement": "Morningglory plant response rating", "setting": "morningglory [3]; [7]", "value": 70}, {"measurement": "Morningglory plant response rating", "setting": "morningglory [3]; [8]", "value": 50}, {"measurement": "Plant response rating, Morningglory", "setting": "morningglory [3]; Preemergence, 500 g ai/ha", "value": 100}, {"measurement": "Plant response rating, Crabgrass, Large", "setting": "crabgrass; Postemergence, 125 g ai/ha", "value": 80}, {"measurement": "Crabgrass, Large plant response rating", "setting": "crabgrass; [7]", "value": 90}, {"measurement": "Crabgrass, Large plant response rating", "setting": "crabgrass; [8]", "value": 40}, {"measurement": "Plant response rating, Crabgrass, Large", "setting": "crabgrass; Preemergence, 500 g ai/ha", "value": 100}, {"measurement": "Plant response rating (0 to 100), Bermudagrass", "setting": "bermudagrass; 31 g ai/ha", "value": 0}, {"measurement": "Plant response rating, Bermudagrass", "setting": "bermudagrass; 62 g ai/ha", "value": 0}, {"measurement": "Plant response rating, Bermudagrass", "setting": "bermudagrass; 125 g ai/ha", "value": 0}, {"measurement": "Plant response rating, Bermudagrass", "setting": "bermudagrass; 250 g ai/ha", "value": 50}, {"measurement": "Plant response rating (0 to 100), Pigweed", "setting": "pigweed; 31 g ai/ha", "value": 0}, {"measurement": "Plant response rating (0 to 100), Pigweed", "setting": "pigweed; 62 g ai/ha", "value": 0}, {"measurement": "Plant response rating, Pigweed", "setting": "pigweed; 125 g ai/ha", "value": 0}, {"measurement": "Plant response rating, Pigweed", "setting": "pigweed; 250 g ai/ha", "value": 0}, {"measurement": "Plant response rating (0 to 100), Goosegrass", "setting": "Goosegrass; 31 g ai/ha", "value": 0}, {"measurement": "Plant response rating, Goosegrass", "setting": "Goosegrass; 62 g ai/ha", "value": 0}, {"measurement": "Plant response rating, Goosegrass", "setting": "Goosegrass; 125 g ai/ha", "value": 0}, {"measurement": "Plant response rating, Goosegrass", "setting": "Goosegrass; 250 g ai/ha", "value": 40}, {"measurement": "Plant response rating (0 to 100), Nutsedge, Yellow", "setting": "yellow nutsedge; 31 g ai/ha", "value": 0}, {"measurement": "Plant response rating, Nutsedge, Yellow", "setting": "yellow nutsedge; 62 g ai/ha", "value": 0}, {"measurement": "Plant response rating, Nutsedge, Yellow", "setting": "yellow nutsedge; 125 g ai/ha", "value": 0}, {"measurement": "Plant response rating, Nutsedge, Yellow", "setting": "yellow nutsedge; 250 g ai/ha", "value": 0}, {"measurement": "Plant response rating, Wheat", "setting": "wheat [4]; Postemergence, 125 g ai/ha", "value": 50}, {"measurement": "Wheat plant response rating", "setting": "wheat [4]; [7]", "value": 60}, {"measurement": "Wheat plant response rating", "setting": "wheat [4]; [8]", "value": 50}, {"measurement": "Plant response rating, Wheat", "setting": "wheat [4]; Preemergence, 500 g ai/ha", "value": 90}, {"measurement": "Plant response rating, Sedge, Umbrella", "setting": "umbrella sedge; [5]", "value": 100}, {"measurement": "Plant response rating, Sedge, Umbrella", "setting": "umbrella sedge; [6]", "value": 100}]}
